Experimental data as given in ChEMBL document CHEMBL1795334, “Towards predictive inhibitor design for the EGFR autophosphorylation activity” (Eur J Med Chem, 2008).

Target: Epidermal growth factor receptor (Homo sapiens, UniProt P00533)
Experiment: Inhibition autophosphorylation of EGFR in human DiFi cells after 2 hrs by ELISA
Assay type: cell-based

Chain of Epidermal growth factor receptor (P00533 whole entry): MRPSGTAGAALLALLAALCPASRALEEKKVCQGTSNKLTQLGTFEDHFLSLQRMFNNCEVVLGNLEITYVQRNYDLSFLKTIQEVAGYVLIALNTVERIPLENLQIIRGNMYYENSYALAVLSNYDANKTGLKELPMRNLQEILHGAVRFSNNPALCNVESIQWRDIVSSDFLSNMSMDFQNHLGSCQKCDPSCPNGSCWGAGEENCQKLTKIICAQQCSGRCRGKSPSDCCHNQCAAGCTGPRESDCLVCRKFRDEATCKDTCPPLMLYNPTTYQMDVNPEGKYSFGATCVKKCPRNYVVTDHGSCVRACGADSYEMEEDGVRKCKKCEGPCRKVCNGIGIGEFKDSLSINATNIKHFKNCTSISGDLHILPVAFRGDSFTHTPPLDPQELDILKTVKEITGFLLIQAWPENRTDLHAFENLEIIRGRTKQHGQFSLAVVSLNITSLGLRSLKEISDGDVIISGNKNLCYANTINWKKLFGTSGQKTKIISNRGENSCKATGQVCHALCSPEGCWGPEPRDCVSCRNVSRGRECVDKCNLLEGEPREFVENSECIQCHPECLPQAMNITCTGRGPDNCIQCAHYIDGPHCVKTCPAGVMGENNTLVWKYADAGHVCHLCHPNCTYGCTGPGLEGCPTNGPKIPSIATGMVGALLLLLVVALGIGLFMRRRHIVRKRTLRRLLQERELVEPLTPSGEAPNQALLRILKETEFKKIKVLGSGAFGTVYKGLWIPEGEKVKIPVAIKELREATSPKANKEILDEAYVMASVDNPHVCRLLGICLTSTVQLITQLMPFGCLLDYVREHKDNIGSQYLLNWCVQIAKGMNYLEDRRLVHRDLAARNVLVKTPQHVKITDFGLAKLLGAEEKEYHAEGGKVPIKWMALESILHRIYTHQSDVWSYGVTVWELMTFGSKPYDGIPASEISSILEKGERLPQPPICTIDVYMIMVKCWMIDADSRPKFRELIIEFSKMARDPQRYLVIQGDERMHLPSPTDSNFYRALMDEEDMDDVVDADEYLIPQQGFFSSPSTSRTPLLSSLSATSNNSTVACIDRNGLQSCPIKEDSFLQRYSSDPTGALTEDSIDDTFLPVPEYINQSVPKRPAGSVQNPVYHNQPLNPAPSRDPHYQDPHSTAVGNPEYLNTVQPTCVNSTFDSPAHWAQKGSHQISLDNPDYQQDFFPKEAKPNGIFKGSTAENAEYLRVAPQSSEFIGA

| Compound | IC50 [µM] |
| --- | --- |
| CCOc1cc2ncc(C#N)c(Nc3cccc(Br)c3)c2cc1OCC | 0.417 |
| COc1cc2ncc(C=O)c(Nc3cccc(Br)c3)c2cc1OC | 3.39 |
| COc1cc2ncc(C#N)c(Nc3ccccc3Br)c2cc1OC | 4.17 |
| COc1cc2ncc(C#N)c(Nc3ccc(Br)c(C)c3)c2cc1OC | 0.617 |
| CCOc1cc2c(Nc3cccc(Br)c3)c(C#N)cnc2cc1OC | 33.1 |
| COCOc1cc2ncc(C#N)c(Nc3cccc(Br)c3)c2cc1OCOC | 6.76 |
| COc1cc2ncc(C#N)c(Nc3ccc(C)c(Br)c3)c2cc1OC | 1.78 |
| CCOc1cc2ncc(C#N)c(Nc3cccc(Br)c3)c2cc1OC | 21.4 |
| COc1cc2ncc(C#N)c(Nc3cccc(Br)c3C)c2cc1OC | 0.832 |
| CCOc1cc2ncc(C#N)c(Nc3ccc(F)c(Cl)c3)c2cc1OCC | 0.977 |
| COc1cc2ncc(C#N)c(Nc3ccc(F)cc3)c2cc1OC | 47.9 |
| COc1cc2ncc(C(=O)O)c(Nc3cccc(Br)c3)c2cc1OC | 33.9 |

Further lines, results first:

| IC50 [µM] | Compound |
| --- | --- |
| 89.1 | COc1cc2c(C#N)cnc(Nc3cccc(Cl)c3)c2cc1OC |
| 1.48 | COc1cc2ncc(C#N)c(Nc3ccc(C)c(Cl)c3)c2cc1OC |
| 0.182 | COc1cc2ncc(C#N)c(Nc3cccc(Cl)c3)c2cc1OC |
| 61.7 | COc1cc2ncc(C#N)c(Nc3cccc(C(C)C)c3)c2cc1OC |
| 0.813 | COc1cc2ncc(C#N)c(Nc3cccc(N)c3)c2cc1OC |
| 6.31 | COc1cc2ncc(C#N)c(Nc3cccc(O)c3)c2cc1OC |
| 9.12 | COc1cc2ncc(C#N)c(Nc3ccc(O)c(Cl)c3)c2cc1OC |
| 14.1 | COc1cc2ncc(C#N)c(Nc3cccc(C#N)c3)c2cc1OC |
| 13.8 | COc1cc2ncc(C#N)c(Nc3ccc(Cl)cc3F)c2cc1OC |
| 0.759 | COc1cc2ncc(C#N)c(Nc3cccc(SC)c3)c2cc1OC |
| 7.76 | COc1cc2ncc(C#N)c(Nc3cccc(C(N)=O)c3)c2cc1OC |
| 69.2 | COc1cc2ncc(C#N)c(Nc3cccc(NC(C)=O)c3)c2cc1OC |
